Several values for one entry are separate records, joined by “and”; a condition that tells them apart may be missing. Identical values can stand only once.
How the values were obtained:
[1] = pKa measurement (cyclohexane / sodium phosphate buffers); format: physicochemical; details: distribution between cyclohexane and sodium phosphate buffers
[2] = room temperature, at least 30 min
Text: Subsequent processing and analysis were as described for rat ex vivo experiments in the main text.

[3] = n = 3
Procedure: Human Plasma Free Fraction. Plasma free fraction (fp) was measured as described previously (6). […] If necessary, samples were left to decay to within the optimal radioactivity range for accurate γ-counter measurement.

[4] = Radiochemical stability of formulated radioligand; format: physicochemical
Text: However, the fraction collected from HPLC contains 0.1% TFA. […] Protection with ascorbic acid was therefore used immediately after HPLC radioligand purification to maintain weakly acidic and reducing conditions.

GluN2B receptors [5] = target: T1, GluN2B receptors (Rattus norvegicus, UniProt P35439+Q00960); assay: PET displacement / pre-blocking of ^11C-NR2B-Me radioligands with Ro-25-6981, Lassen plots; format: in vivo; details: rat; Ro-25-6981 0.25 mg/kg i.v. 10 min before radioligand
T1 construct: from tissue; host or cells: brain of living male rats (PET imaging)
Procedure: For radioligand injection, a polyethylene catheter (PE 10) was inserted into the penile vein of a male rat and then secured with tissue adhesive and tape. […] Body temperature was monitored with a rectal probe. All PET scans were performed on a microPET Focus 220 scanner (Siemens Medical Solutions) (7,8). Data were acquired in listmode and reconstructed with Fourier rebinning + 2D filtered backprojection. A transmission scan was acquired before radioligand injection for attenuation correction. Dynamic scanning began at the time of a one-minute intravenous bolus injection of the radioligand under study (55 ± 19 MBq; volume 0.2 to 1.0 mL). The injected mass dose was 3 ± 1 nmol/kg. Challenge agents were administered intravenously 10 minutes before the radioligand for pre-blocking studies or 10 minutes after the radioligand for displacement studies. Tomographic images were analyzed with pixel-wise modeling computer software (PMOD 2.6; PMOD Group). Regions-of-interest in the brain were delineated, and time-activity curves calculated as SUV versus time.
Pre-blocking and displacement experiments were performed to assess radioligand target engagement and radioligand selectivity in vivo. […] Areas-under the curve (AUCs) from time-activity curves between 20 and 90 minutes were calculated for each radioligand. AUCs obtained from the same production of radioligand were scaled to the value (or mean value) for the baseline experiment to give relative values (relative AUC20–90 min). […] Where data permitted, the dose-response curves were fitted with GraphPad Prism software (version 8.1.1; GraphPad) to estimate the ED50 values. A dummy value of 100 pmol per kg body weight was used for zero concentration of the challenge agent in the construction of these dose-response curves. Numerical data are expressed as mean ± S.D. for n>2, or as mean and range for n = 2.

[6] = LogD7.4 measurement (1-octanol / sodium phosphate buffer); format: physicochemical; details: 1-octanol / sodium phosphate buffer pH 7.4, room temperature
Procedure: The radiochemical purity of the radioligand was measured via HPLC. […] Aliquots (1 mL) were distributed to each of eight borosilicate disposable culture tubes (13 × 100 mm). Six tubes were extracted with buffer pre-treated 1-octanol (1 mL) by vortexing for one minute and then centrifuged for one minute. The organic and aqueous phases were separated. Samples of organic phase (50 µL) and aqueous phase (50 µL) were taken and separately measured for radioactivity. The remaining two tubes containing radioactivity in buffer were analyzed with HPLC to check for any decrease in radiochemical purity over the time-span of the experiment. […] LogD was calculated as log[(cpm/mL for 1-octanol phase)/(cpm/mL for aqueous phase)] using Pallas for Windows software (CompuDrug Inc.).

[7] = Procedure: For Brain. The brain (1.7 g) was homogenized in twice its volume of cold saline. […] An aliquot (450 µL) was then placed in acetonitrile (720 µL) along with carrier NR2B-Me (5 µg) and mixed well. Water (100 µL) was then added, mixed well, measured for radioactivity, and centrifuged at 10,000 g for one minute. The supernatant was analyzed via HPLC. The precipitate was measured for radioactivity to determine the recovery of radioactivity into the supernatant that had been injected onto HPLC.
For Whole Blood. […] The sample was mixed well and incubated at 37 °C for one hour. Water (300 µL) was added to lyse open all cells. An aliquot (450 µL) was then removed to a new vial, and acetonitrile (720 µL) was added. The mixture was mixed well, measured for radioactivity, and centrifuged at 10,000 g for one minute. The supernatant was analyzed via HPLC as described for brain.
For Plasma. Plasma was separated from blood cells. […] The mixture was measured for radioactivity. An aliquot (450 µL) was then placed in acetonitrile (720 µL) along with carrier NR2B-Me (5 µg) and mixed well. Water (100 µL) was then added, mixed well, measured for radioactivity, and centrifuged at 10,000 g for one minute. The supernatant was analyzed with HPLC as described for brain. The precipitate was measured for radioactivity to determine radioactivity recovery into the supernatant that had been injected onto HPLC.
(§1) The SUV due to radioligand or radiometabolite only was calculated by multiplying the total SUV of the tissue by the fraction of the radioligand or radiometabolite measured with HPLC (Supplementary Table S4).

[8] = remark: listed apart in the source
Procedure: Rats were anesthetized with 1.5% isoflurane in oxygen. […] The rats were then immediately sacrificed by decapitation, and their brains and myocardial tissues were excised.
Plasma was separated from blood cells, and a sample (50 µL) was measured for radioactivity. An aliquot (450 µL) was placed in acetonitrile (720 µL) along with carrier NR2B-Me (5 µg) and mixed well. Water (100 µL) was added, mixed well, measured for radioactivity, and centrifuged at 10,000 g for one minute. The supernatant was analyzed with radio-HPLC and the precipitate measured for radioactivity, as described for brain.
as §1

[9] = cited from earlier work
[10] = cited from earlier work; remark: listed apart in the source
σ1 receptors = target: T2, σ1 receptors (Rattus norvegicus, UniProt Q9R0C9); assay: ED50 for pre-blocking of ^18F-FTC146 uptake in rat whole brain (PET); format: in vivo; details: radioligand ^18F-FTC146, AUC 20-120 min
T2 construct: from tissue; host or cells: brain of living male rats (PET imaging)
Procedure: For radioligand injection, a polyethylene catheter (PE 10) was inserted into the penile vein of a male rat and then secured with tissue adhesive and tape. For dynamic scanning, the rats were secured with tape in the scanner and kept under 1.5% isoflurane anesthesia via a nose cone. Body temperature was monitored with a rectal probe. All PET scans were performed on a microPET Focus 220 scanner (Siemens Medical Solutions) (7,8). Data were acquired in listmode and reconstructed with Fourier rebinning + 2D filtered backprojection. A transmission scan was acquired before radioligand injection for attenuation correction. Dynamic scanning began at the time of a one-minute intravenous bolus injection of the radioligand under study (55 ± 19 MBq; volume 0.2 to 1.0 mL). The injected mass dose was 3 ± 1 nmol/kg. Challenge agents were administered intravenously 10 minutes before the radioligand for pre-blocking studies or 10 minutes after the radioligand for displacement studies. Tomographic images were analyzed with pixel-wise modeling computer software (PMOD 2.6; PMOD Group). Regions-of-interest in the brain were delineated, and time-activity curves calculated as SUV versus time.
Pre-blocking and displacement experiments were performed to assess radioligand target engagement and radioligand selectivity in vivo. Normally 4 doses of 0.01 mg/kg, 0.05 mg/kg, 0.25 mg/kg, and 1.25 mg/kg were used for preblocking experiments, and only 2 doses of 0.25 mg/kg and 1.25 mg/kg were used for displacement experiments. […] […] […] […] Where data permitted, the dose-response curves were fitted with GraphPad Prism software (version 8.1.1; GraphPad) to estimate the ED50 values. A dummy value of 100 pmol per kg body weight was used for zero concentration of the challenge agent in the construction of these dose-response curves. Numerical data are expressed as mean ± S.D. for n>2, or as mean and range for n = 2.

GluN2B receptors [11] = target: T1, GluN2B receptors; set-up: method as in PMID 31924728; details: pre-blocking, radioligand ^11C-(S)-NR2B-SMe; cited from earlier work
σ2 receptor = details: at 10 µmol; cited from earlier work
GluN2B = target: T3, GluN2B (Homo sapiens, UniProt Q05586+Q13224); set-up: method as in PMID 31924728; details: cited from earlier work
T3 construct: expressed in transfected cells; host or cells: transiently transfected mouse fibroblast cells (membrane homogenate)

[12] = rat, ex vivo 30 min after intravenous injection

T1 sequence (Q00960 27-1482, other chains not shown): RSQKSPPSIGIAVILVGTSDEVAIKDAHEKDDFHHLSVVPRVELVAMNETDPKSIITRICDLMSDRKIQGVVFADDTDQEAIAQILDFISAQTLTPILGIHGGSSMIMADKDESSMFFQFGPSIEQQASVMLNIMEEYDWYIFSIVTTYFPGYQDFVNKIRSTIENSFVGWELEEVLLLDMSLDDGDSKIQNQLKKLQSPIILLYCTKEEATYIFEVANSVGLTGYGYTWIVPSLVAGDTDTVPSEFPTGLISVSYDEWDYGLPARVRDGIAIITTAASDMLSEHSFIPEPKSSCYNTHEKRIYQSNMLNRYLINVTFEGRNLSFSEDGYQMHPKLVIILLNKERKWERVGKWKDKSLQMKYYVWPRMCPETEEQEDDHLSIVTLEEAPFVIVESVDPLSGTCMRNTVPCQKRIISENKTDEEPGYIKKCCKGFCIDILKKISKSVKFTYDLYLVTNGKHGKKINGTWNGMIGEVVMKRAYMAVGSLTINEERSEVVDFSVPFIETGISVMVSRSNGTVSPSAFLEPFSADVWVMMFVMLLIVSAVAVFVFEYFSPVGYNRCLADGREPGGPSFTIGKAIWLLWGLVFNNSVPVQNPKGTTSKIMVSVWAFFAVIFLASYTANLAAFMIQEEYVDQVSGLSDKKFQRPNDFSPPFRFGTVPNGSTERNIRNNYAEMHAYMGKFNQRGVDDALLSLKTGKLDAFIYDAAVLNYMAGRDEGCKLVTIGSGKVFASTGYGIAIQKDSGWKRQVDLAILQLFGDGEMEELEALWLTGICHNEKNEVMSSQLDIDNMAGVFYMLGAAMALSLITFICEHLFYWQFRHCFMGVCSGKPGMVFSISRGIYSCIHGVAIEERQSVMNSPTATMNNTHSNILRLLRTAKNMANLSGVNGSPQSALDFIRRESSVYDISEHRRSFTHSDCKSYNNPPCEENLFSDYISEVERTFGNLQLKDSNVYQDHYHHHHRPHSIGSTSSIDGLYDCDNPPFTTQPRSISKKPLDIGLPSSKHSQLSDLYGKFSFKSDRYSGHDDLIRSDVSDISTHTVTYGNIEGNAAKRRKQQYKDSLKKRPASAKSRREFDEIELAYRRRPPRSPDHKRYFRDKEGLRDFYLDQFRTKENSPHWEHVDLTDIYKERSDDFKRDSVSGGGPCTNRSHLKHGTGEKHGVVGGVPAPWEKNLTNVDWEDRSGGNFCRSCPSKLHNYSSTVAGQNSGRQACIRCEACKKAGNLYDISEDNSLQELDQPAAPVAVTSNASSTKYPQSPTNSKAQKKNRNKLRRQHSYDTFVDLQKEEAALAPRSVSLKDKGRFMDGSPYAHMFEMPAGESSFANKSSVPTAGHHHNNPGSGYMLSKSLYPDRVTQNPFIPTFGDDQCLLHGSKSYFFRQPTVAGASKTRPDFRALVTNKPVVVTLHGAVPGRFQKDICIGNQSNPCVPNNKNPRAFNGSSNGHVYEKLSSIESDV
T2 sequence (Q9R0C9 whole entry): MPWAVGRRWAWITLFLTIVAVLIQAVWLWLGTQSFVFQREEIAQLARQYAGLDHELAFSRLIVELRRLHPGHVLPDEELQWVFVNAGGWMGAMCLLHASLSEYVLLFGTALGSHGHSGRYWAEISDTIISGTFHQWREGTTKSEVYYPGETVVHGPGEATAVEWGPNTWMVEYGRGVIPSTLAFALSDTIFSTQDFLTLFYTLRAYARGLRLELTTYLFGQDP
T3 sequence (Q13224 27-1484, species assumed, other chains not shown): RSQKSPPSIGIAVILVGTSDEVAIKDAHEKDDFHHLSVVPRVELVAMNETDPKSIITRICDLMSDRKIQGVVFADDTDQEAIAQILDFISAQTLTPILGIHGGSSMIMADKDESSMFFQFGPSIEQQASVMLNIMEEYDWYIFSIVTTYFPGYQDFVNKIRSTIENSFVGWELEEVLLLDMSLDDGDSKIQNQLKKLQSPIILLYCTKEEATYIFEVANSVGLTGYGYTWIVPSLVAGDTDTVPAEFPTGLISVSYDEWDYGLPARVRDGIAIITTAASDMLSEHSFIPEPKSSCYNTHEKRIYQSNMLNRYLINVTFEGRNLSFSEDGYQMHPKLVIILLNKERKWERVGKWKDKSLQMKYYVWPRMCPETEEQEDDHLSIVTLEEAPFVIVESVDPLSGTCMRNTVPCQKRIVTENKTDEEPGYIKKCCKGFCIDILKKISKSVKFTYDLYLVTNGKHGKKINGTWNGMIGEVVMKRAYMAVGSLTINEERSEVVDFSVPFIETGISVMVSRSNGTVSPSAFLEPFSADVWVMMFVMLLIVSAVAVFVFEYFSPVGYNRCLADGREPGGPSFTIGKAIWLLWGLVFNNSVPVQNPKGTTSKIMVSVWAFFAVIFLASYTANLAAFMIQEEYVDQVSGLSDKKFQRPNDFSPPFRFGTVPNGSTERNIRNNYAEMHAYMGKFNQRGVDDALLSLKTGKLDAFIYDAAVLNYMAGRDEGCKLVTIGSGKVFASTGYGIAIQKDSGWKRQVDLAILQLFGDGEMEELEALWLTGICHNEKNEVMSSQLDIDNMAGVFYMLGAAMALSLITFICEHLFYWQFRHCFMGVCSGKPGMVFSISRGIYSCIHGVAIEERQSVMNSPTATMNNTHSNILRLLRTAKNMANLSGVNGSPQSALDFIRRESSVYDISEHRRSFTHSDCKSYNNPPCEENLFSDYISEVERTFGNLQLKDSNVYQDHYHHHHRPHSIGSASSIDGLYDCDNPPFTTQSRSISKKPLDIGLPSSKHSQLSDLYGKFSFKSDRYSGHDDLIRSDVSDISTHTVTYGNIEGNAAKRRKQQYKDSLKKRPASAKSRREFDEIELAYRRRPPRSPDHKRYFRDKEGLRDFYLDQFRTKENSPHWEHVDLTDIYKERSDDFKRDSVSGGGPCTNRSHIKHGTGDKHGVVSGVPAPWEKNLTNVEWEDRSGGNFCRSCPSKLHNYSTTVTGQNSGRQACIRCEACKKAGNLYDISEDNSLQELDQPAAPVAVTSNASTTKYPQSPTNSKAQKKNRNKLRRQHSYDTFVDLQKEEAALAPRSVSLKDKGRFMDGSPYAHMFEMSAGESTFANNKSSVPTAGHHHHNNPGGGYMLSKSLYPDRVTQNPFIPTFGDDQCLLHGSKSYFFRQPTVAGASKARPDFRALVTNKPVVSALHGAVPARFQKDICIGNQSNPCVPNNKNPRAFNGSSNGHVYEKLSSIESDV

In the case of `COc1ccc2c(c1)CCN(CCCCc1ccc([11CH3])cc1)CC2O` (racemic) [^11C-NR2B-Me], the “pKa (apparent)” value [1] is reported as 5.04 ± 0.01, the “stability in human brain homogenate” value [2] is reported as 99.5% and the “stability in human plasma” value [2] is reported as 100%. For the same molecule, the “human plasma free fraction (fp)” value [3] was 1.16% ± 0.14, the “time stable in PBS (10 mM)” value [4] was “at least 2.5 hours” and the “radioligand remaining in solution (no adsorption to glass test tubes)” value ([4]; PBS 10 mM) was 98.1 ± 0.5%. For the same molecule, the “radioactivity in brain regions at 90 min as % of peak values after pre-block” value (GluN2B receptors [5]) was “about 10%”, the logD7.4 [6] was 3.27 and the “conversion into radiometabolite in brain homogenate” value ([7]; rat brain homogenate) was “less than 0.5%”. For the same molecule, the “In vitro stability, plasma” value ([7]; rat plasma, 37 °C, 30 min) was 70.3%, the “single less lipophilic radiometabolite detected in rat plasma in vitro” value ([7]; rat plasma, 37 °C, 30 min) was “about 30%” and the “Ex vivo stability, brain (unchanged radioligand as % of radioactivity)” value ([8]; rat brain, 30 min after intravenous injection) was 99.5% and > 99%. The “Ex vivo stability, plasma (unchanged radioligand as % of radioactivity)” value ([8]; rat plasma, 30 min after intravenous injection) was 46.2%, the “Radioactivity conc., brain” value [8, 12] was 4.1 SUV and the “Radioactivity conc., plasma” value [8, 12] was 0.04 SUV. For the same molecule, the “Radioactivity conc., whole blood” value [8, 12] was 0.300 SUV, the “Tissue to plasma radioactivity ratio, brain” value [8, 12] was 103 and the “Tissue to plasma radioactivity ratio, plasma” value [8, 12] was 1.0. The “Tissue to plasma radioactivity ratio, whole blood” value [8, 12] was 7.5.
In the case of `CSc1ccc2c(c1)CCN(CCCCc1ccc(C)cc1)CC2O` (racemic) [NR2B-SMe, (R,S)-7-thiomethoxy-3-(4-(4-methyl-phenyl)butyl)-2,3,4,5-tetrahydro-1H-benzo[d]azepin-1-ol], the cLogD7.4 [9] is listed as 3.41, the pKa [10] is listed as 5.03 and the “ED50 in rat whole brain in vivo ^18F-FTC146” value (σ1 receptors) is listed as 1064 nmol/kg. For the same molecule, the “ED50 in rat whole brain in vivo ^11C-(S)-NR2B-SMe” value (GluN2B receptors [11]) was 9.5 nmol/kg, the σ2 inhibition (σ2 receptor) was 90% and the Ki (GluN2B) was 2.2 nM.

Source: PMC10076467 (EJNMMI Research, 2023)
